Data reported in paper PMC7508583, “Discovery and Preclinical Development of Antigiardiasis Fumagillol Derivatives” (Antimicrobial Agents and Chemotherapy, 2020).

Assays:
[1] = tested on: G. lamblia GS trophozoites; experiment: Trophozoite viability MLC determination; type: cell-based, Giardia lamblia
Experimental: The inhibition of metabolism enables the organism to resume proliferation once treatment is completed. To discriminate between the lethality of the promising compounds and the induction of metabolic inactivity by the promising compounds, the minimum lethal concentration (MLC) values were determined by treating the trophozoites with the test compounds for 3 days and transferring the resulting cultures to medium lacking the compounds for 3 days of proliferation. This assay was described previously for G. lamblia ([18]) and was adapted to E. histolytica in the current study.
Trophozoites of G. lamblia isolates WB and GS were grown anaerobically in borosilicate glass screw-cap culture tubes (Fisher Scientific) at pH 7.0 in Keister’s modified TYI-S-33 medium (ATCC). The medium was supplemented with 10% heat-inactivated bovine serum (Sigma-Aldrich) and 0.05% bovine bile (Sigma-Aldrich). To attain low-oxygen-tension conditions, the tubes were filled to 85% to 90% of their total volume capacity and incubated without shaking at 37°C. Subcultures (2 × 10^5 trophozoites per tube) were made three times a week. Detachment of trophozoites for inoculation was achieved by chilling the cultures on ice for 20 min. Culturing and detachment of metronidazole-resistant G. lamblia assemblage A 713M3 and assemblage B 1279-M1 trophozoites followed the same protocol, except that the growth medium was supplemented with metronidazole, with the concentration gradually being increased to 10 μM.
Compounds were prepared by 2-fold serial dilutions in growth medium containing 0.5% DMSO (diluted from a starting concentration of 1 μM to 12 concentrations for all compounds except metronidazole, fumagillol, and TNP-470, which were diluted from 100 μM), and 100 μl/well was transferred in duplicate to the 96-well culture plate. Ten microliters of G. lamblia trophozoites was plated at a density of 10,000 cells/well. The plates were incubated under anaerobic condition in a BD GasPak EZ container system (BD Diagnostics) at 37°C for 72 h and surveyed visually under a microscope to check trophozoite survival, mobility, and attachment. […] The tubes were incubated under anaerobic condition for 3 days at 37°C and checked under a microscope. The MLC value was the concentration in the tube with the lowest compound concentration without any live organism.

[2] = tested on: G. lamblia WB trophozoites; set-up: method as in PMID 21078930, PMID 25267663; conditions: read-out: IC50 against assemblage A WB strain; cited from earlier work
[3] = Accelerated temperature/humidity degradation test; type: physicochemical; conditions: day 28, 37°C; for Mean ± SE degradation at 4 wk and 37°C, 75% humidity: 75% relative humidity; for Mean ± SE degradation at 4 wk and 37°C, uncontrolled humidity: uncontrolled relative humidity
Experimental: Accelerated temperature tests were performed at 37°C and under 75% relative humidity or laboratory uncontrolled relative humidity, comparing compounds 3 and 9 to fumagillin. Sanofi reported previously that fumagillin degraded from 98% to 85% purity when stored at 40°C for 2 weeks at ambient humidity ([42]).
For accelerated temperature degradation tests at 75% relative humidity and at laboratory uncontrolled relative humidity, fumagillin and compounds 3 and 9 were incubated at 37°C under either controlled or uncontrolled humidity, and the samples were analyzed by HPLC every week for 4 weeks. Measurements were made in duplicate. Area-under-the-curve values were calculated to derive the percentage of compound remaining. For pH degradation, the compounds were dissolved in DMSO and mixed with pH 3.0 buffer. The samples were incubated at 25°C for up to 48 h. Samples were analyzed by HPLC every 2 h for the first 8 h and then after 24 and 48 h.

[4] = tested on: G. lamblia GS trophozoites; set-up: method as in PMID 21078930, PMID 25267663; conditions: read-out: IC50 against assemblage B GS strain; cited from earlier work

SMILES | fold improved MLCs compared with the MLC of fumagillin [1] [fold] | IC50 [2] [nM] | Mean ± SE degradation at 4 wk and 37°C, 75% humidity [3] [%] | Mean ± SE degradation at 4 wk and 37°C, 75% humidity ([3]; listed as fumagillin) [%] | Mean ± SE degradation at 4 wk and 37°C, uncontrolled humidity [3] [%] | Mean ± SE degradation at 4 wk and 37°C, uncontrolled humidity ([3]; listed as fumagillin) [%] | IC50 [4] [nM]
COC1C(OC(=O)NC(=O)CN2CCOCC2)CCC2(CO2)C1C1(C)OC1CC=C(C)C (stereo not shown) [Compound 3] | ~100 | – | – | – | – | – | –
CO[C@@H]1[C@H](OC(=O)/C=C/C=C/C=C/C=C/C(=O)O)CC[C@]2(CO2)[C@H]1[C@@]1(C)O[C@@H]1CC=C(C)C [Fumagillin, reference compound] | – | 10 | 30.37 ± 1.12 | 30.37 | 20.22 ± 3.90 | 20.22 | 2
